Results reported in patent publication US6603044B1, “Phthalamide derivatives, or salt thereof agrohorticultural insecticide, and method for using the same” (Nihon Nohyaku Co., Ltd., priority 1998, dated 2003).

Columns and labels:
Format in all cases: in vivo
[1] = tested on: Diamond Back Moth (Plutella xylostella); assay: Insecticidal effect on diamond back moth (Test Example 1); conditions: 50 ppm; Chinese cabbage seedling with deposited eggs immersed about 30 seconds; 25° C.; six days after the immersion
In short: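 Mortality was scored six days after treatment by counting hatched insects, in three groups of 10. Treatment meant immersing egg-bearing cabbage seedlings (two days post-oviposition) for about 30 seconds in 50 ppm compound preparation, then drying and holding at 25° C.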

[2] = tested on: Common Cutworm (Spodoptera Litura); assay: Insecticidal effect on common cutworm (Test Example 2); conditions: 50 ppm; cabbage leaf immersed about 30 seconds; second-instar larvae; 25° C.; eight days after the inoculation
Excerpt: Insecticidal Effect on Common Cutworm (Spodoptera Litura)
A piece of cabbage leaf (cultivar; Shikidori) was immersed for about 30 seconds in a liquid chemical prepared by diluting a preparation containing each compound listed in Table 1, 2 or 3 as an active ingredient to adjust the concentration to 50 ppm. After air-dryness, it was placed in a plastic Petri dish with a diameter of 9 cm and inoculated with second-instar larvae of common cutworm, after which the dish was closed and then allowed to stand in a room thermostatted at 25° C. Eight days after the inoculation, the dead and alive were counted. The mortality was calculated according to the following equation and the insecticidal effect was judged according to the criterion shown in Test Example 1. The test was carried out with triplicate groups of 10 insects. [formula]

[3] = tested on: Smaller tea Tortrix (Adoxophyes sp.); assay: Insecticidal effect on smaller tea tortrix (Test Example 3); conditions: 50 ppm; tea leaf immersed 30 seconds; larvae; 25° C., humidity 70%; eight days after the inoculation
Experimental: Insecticidal Effect on Smaller tea Tortrix (Adoxophyes sp.)
A leaf of tea tree was immersed for 30 seconds in a liquid chemical containing each compound listed in Table 1, 2 or 3 as an active ingredient to adjust the concentration to 50 ppm. After air-dryness, the leaf was transferred to a plastic dish with a diameter of 9 cm and inoculated with larval smaller tea tortrix. Then, the leaf was allowed to stand in a room thermostatted at 25° C. at a humidity of 70%. Eight days after the inoculation, the dead and alive were counted, and the insecticidal effect was judged according to the same criterion as mentioned in Test Example 1. The test was carried out with triplicate groups of 10 insects.

| SMILES | Test Example 1 insecticidal effect (mortality) [1] | Test Example 2 insecticidal effect (mortality) [2] | Test Example 3 insecticidal effect (mortality) [3] |
| --- | --- | --- | --- |
| CSCC(C)NC(=O)c1c(C(=O)Nc2ccc(C(F)(C(F)(F)F)C(F)(F)F)cc2C)cccc1S(C)(=O)=O (centres unmarked) [Compound No. 191, N^1-(4-Heptafluoroisopropyl-2-methylphenyl)-N^2-(1-methyl-2-methylthioethyl)-3-methylsulfonylphthalamide] | A (100) | A (100) |  |
| CCN(CCSC)C(=O)c1c(F)cccc1C(=O)Nc1ccc(C(F)(C(F)(F)F)C(F)(F)F)cc1C [2-5] | A (100) | C (89-80) |  |
| CC(C)(CS(C)(=O)=O)NC(=O)c1c(Br)cccc1C(=O)Nc1ccc(OC(F)(F)F)cc1Cl [compound 228] | A (100) | A (100) |  |
| CSCC(C)NC(=O)c1c(C(=O)Nc2ccc(C(F)(C(F)(F)F)C(F)(F)F)cc2C)ccc(F)c1Cl (centres unmarked) [compound 149] | A (100) | A (100) |  |
| C[S+]([O-])CC(C)(C)NC(=O)c1c(Cl)cccc1C(=O)Nc1ccc(OC(F)(F)F)cc1Cl (centres unmarked) [compound 370] | A (100) | A (100) |  |
| CSCC(C)(C)NC(=O)c1c(Br)cccc1C(=O)Nc1ccc(OC(F)(F)F)cc1Cl [compound 227] | A (100) | A (100) |  |
| CSCCC(C)NC(=O)c1c(I)cccc1C(=O)Nc1ccc(C(F)(C(F)(F)F)C(F)(F)F)cc1C (centres unmarked) [Compound No. 195, 3-Iodo-N^1-(4-heptafluoroisopropyl-2-methylphenyl)-N^2-(1-methyl-3-methylsulfenylpropyl)-phthalamide] | A (100) | A (100) | A (100) |
| Cc1cc(C(F)(F)F)ccc1NC(=O)c1cccc(Br)c1C(=O)NC(C)(C)C[S+](C)[O-] (centres unmarked) [compound 311] | A (100) | A (100) |  |
| CSCCC(C)NC(=O)c1cccc(I)c1C(=O)Nc1ccc(C(F)(C(F)(F)F)C(F)(F)F)cc1C (centres unmarked) [Compound No. 162, 6-Iodo-N^1-(4-heptafluoroisopropyl-2-methylphenyl)-N^2-(1-methyl-3-methylthiopropyl)phthalamide] | A (100) | A (100) | A (100) |
| Cc1cc(C(F)(F)C(F)(F)F)ccc1NC(=O)c1cccc(I)c1C(=O)NC(C)CCC[S+](C)[O-] (centres unmarked) [compound 133] | A (100) | A (100) |  |
| Cc1cc(OC(F)(F)F)ccc1NC(=O)c1cccc(Br)c1C(=O)NC(C)C[S+](C)[O-] (centres unmarked) [compound 87] | A (100) | C (89-80) |  |
| Cc1cc(Oc2ncc(C(F)(F)F)cc2Cl)ccc1NC(=O)c1cccc(I)c1C(=O)NC(C)C[S+](C)[O-] (centres unmarked) [compound 410] | A (100) | A (100) |  |
| Cc1cc(C(F)(C(F)(F)F)C(F)(F)F)ccc1NC(=O)c1cccc(I)c1C(=O)NC(C)CCS(C)(=O)=O (centres unmarked) [Compound No. 196, 3-Iodo-N^1-(4-heptafluoroisopropyl-2-methylphenyl)-N^2-(1-methyl-3-methylsulfonylpropyl)-phthalamide] | A (100) | A (100) | A (100) |
| CSCC(C)NC(=O)c1cc(I)ccc1C(=O)Nc1ccc(C(F)(F)C(F)(F)F)cc1C (centres unmarked) [compound 108] | A (100) | A (100) |  |
| CSCC(C)NC(=O)c1c(Br)cccc1C(=O)Nc1ccc(OC(F)(F)F)cc1Cl (centres unmarked) [compound 337] | A (100) | A (100) |  |
| Cc1cc(C(F)(F)C(F)(F)F)ccc1NC(=O)c1cccc([N+](=O)[O-])c1C(=O)NC(C)(C)CS(C)(=O)=O [compound 375] | A (100) | A (100) |  |
| CCN(CSC)C(=O)c1c(Cl)cccc1C(=O)Nc1ccc(OC(F)(F)C(F)(F)F)cc1C [2-17] | A (100) | A (100) |  |
| CSCC(C)NC(=O)c1c(C(=O)Nc2ccc(C(F)(F)C(F)(F)F)cc2C)ccc(F)c1Cl (centres unmarked) [compound 148] | A (100) | C (89-80) |  |

| SMILES | Test Example 1 insecticidal effect (mortality) [1] | Test Example 2 insecticidal effect (mortality) [2] | Test Example 3 insecticidal effect (mortality) [3] |
| --- | --- | --- | --- |
| Cc1cc(OC(F)(F)F)ccc1NC(=O)c1ccc(Cl)c(Cl)c1C(=O)NC(C)C[S+](C)[O-] (centres unmarked) [compound 193] | A (100) | D (79-50) |  |
| C[S+]([O-])CC(C)(C)NC(=O)c1c(Br)cccc1C(=O)Nc1ccc(OC(F)(F)F)cc1Cl (centres unmarked) [compound 232] | A (100) | A (100) |  |
| CC(C[S+](C)[O-])NC(=O)c1c(Cl)cccc1C(=O)Nc1ccc(OC(F)(F)F)cc1Cl (centres unmarked) [compound 381] | A (100) | A (100) |  |
| CSCC(C)NC(=O)c1c(C(=O)Nc2ccc(OC(F)(F)F)cc2C)ccc2c1OC(F)(F)O2 (centres unmarked) [compound 290] | A (100) | D (79-50) |  |
| Cc1cc(OC(F)(F)F)ccc1NC(=O)c1cccc(I)c1C(=O)NC(C)CS(=O)(=O)C(C)(C)C (centres unmarked) [compound 139] | A (100) | A (100) |  |
| CC(CS(C)(=O)=O)NC(=O)c1c(I)cccc1C(=O)Nc1cc2c(cc1Cl)OC(F)C(F)(F)O2 (centres unmarked) [compound 102] | A (100) | A (100) |  |
| CNC(=S)SCC(C)NC(=O)c1c(I)cccc1C(=O)Nc1ccc(C(F)(C(F)(F)F)C(F)(F)F)cc1C (centres unmarked) [compound 425] | A (100) | A (100) |  |
| CC(C[S+](C)[O-])NC(=O)c1c(Br)cccc1C(=O)Nc1ccc(OC(F)(F)F)cc1Cl (centres unmarked) [compound 338] | A (100) | A (100) |  |
| CSCC(C)NC(=O)c1c(OC(F)(F)F)cccc1C(=O)Nc1ccc(C(F)(C(F)(F)F)C(F)(F)F)cc1C (centres unmarked) [Compound No. 210, N^1-(4-Heptafluoroisopropyl-2-methylphenyl)-N^2-3-(1-methyl-2-methylthioethyl)-3-trifluoromethoxyphthalamide] | A (100) | A (100) | A (100) |
| Cc1cc(OC(F)(F)F)ccc1NC(=O)c1cccc(I)c1C(=O)NC(C)CSC(C)C (centres unmarked) [compound 5] | A (100) | A (100) |  |
| CCN(CCCSC)C(=O)c1c(F)cccc1C(=O)Nc1ccc(C(F)(C(F)(F)F)C(F)(F)F)cc1C [2-6] | A (100) | D (79-50) |  |
| CCN(CSC)C(=O)c1c(Cl)cccc1C(=O)Nc1ccc(C(F)(C(F)(F)F)C(F)(F)F)cc1C [2-8] | A (100) | A (100) |  |
| CSCC(C)NC(=O)c1cccc(Cl)c1C(=O)Nc1ccc(C(F)(F)C(F)(F)F)cc1C (centres unmarked) [compound 115] | A (100) | A (100) |  |
| CCS(=O)(=O)CC(C)(C)NC(=O)c1c(I)cccc1C(=O)Nc1ccc(OC(F)(F)F)cc1C [compound 250] | A (100) | A (100) |  |
| Cc1cc(C(F)(F)C(F)(F)F)ccc1NC(=O)c1cccc(Cl)c1C(=O)NC(C)C[S+](C)[O-] (centres unmarked) [compound 144] | A (100) | A (100) |  |
| CSCC(C)NC(=O)c1c(I)cccc1C(=O)Nc1ccc(OC(F)(F)F)cc1Cl (centres unmarked) [compound 233] | A (100) | A (100) |  |
| CSCC(C)(C)NC(=O)c1c(F)cccc1C(=O)Nc1ccc(OC(F)(F)F)cc1Cl [compound 385] | A (100) | C (89-80) |  |
